Patent US20240041902A1, “COMPOSITIONS AND METHODS FOR THE TREATMENT OF UROTHELIAL CANCER” (The State of Israel, Ministry of Agriculture & Rural …, priority 2020, published 2024)

How the values were obtained:
T24 cells [1] = test: Cell cycle analysis (PI staining, FACS); type: cell-based, human; settings: 24 hours, DQ 30, sCBD 30, MMC 8 μg/mL
Procedure: For cell cycle analysis, cells were seeded in 6-wells culture plates at a concentration of 5×10^5 cells per well in McCoy (for T24 cells). The following day, media was replaced with new media containing treatments or methanol control. Cells were then incubated for 24 h at 37° C. in a humidified 5% CO2, 95% air atmosphere. Following 24 h of incubation, media was replaced with new media containing treatment or methanol control. Cells from each well were then harvested and collected separately and centrifuged for 2 min at 900 g. The cell pellet was washed once with 1 mL of PBS and fixed with 70% cold ethanol at 4° C. for at least 1 h. The fixed cells were pelleted out and washed twice with 1 mL of PBS. The cell pellet was then stained by re-suspending in 250 μL of PI solution (50 μg/mL) containing RNase A (100 μg/mL) for 30 min in the dark. Following, 200 μL of PBS were added to each tube and cells were analyzed using FACS.
Cell proliferation assay—XTT assay was carried on T24 and HTB-9 cells. 1×10^4 cells/well were seeded in 96-well plates. […] MMC was used as a positive control. XTT reagent (2,3,-bis (2-methoxy-4-nitro-5-sulfophenyl)-5-[(phenylamino)-carbonyl]-2H-tetrazolium inner salt) was added for 2 h at 37° C. in a humidified atmosphere of 5% CO2 to 95% air. Absorbance was recorded by a Synergy 111 hybrid reader photometer (BioTek) at 490 nm with 650 nm of reference wavelength. Cell survival (% r, viability) was estimated using the equation: % cell survival=(A490−A650) of treatment/(A490−A650) of solvent control×100. A490 and A650 are the absorbencies of the XTT colorimetric reaction. […] Apoptosis assay and cell cycle analysis—T24 cells were treated with cannabis compounds or with methanol as vehicle control. The cell cycle was determined at 24 hours and apoptosis was determined at 48 hours following treatment. Staining and detection followed the manufacturer's instructions. […] Then 200 μL of PBS was added to each tube and the cells were analyzed using FACS.

T24 cells [2] = test: Apoptosis assay (Annexin V-FITC and PI, FACS); type: cell-based, human; settings: 48 hours
Procedure: Apoptosis assay and cell cycle analysis—T24 cells were treated with cannabis compounds or with methanol as a vehicle control. Cell cycle was determined at 24 h and apoptosis was determined at 48 h post-treatment. Staining and detection followed manufacturer instructions. Briefly, for the apoptosis assay, the MEBCYTO Apoptosis Kit with Annexin V-FITC and PI (MBL, Enco, 4700) was used. Cells were seeded in culture 6-wells plates, at density of 5×10^5 cells per well in McCoy's 5A (for T24 a cells) or in RPMI (for HTB-9 cells). The following day, media was replaced with new media containing treatment or methanol control. Cells were then incubated for 24 or 48 h at 37° C. in a humidified 5% CO2 95% air atmosphere. Following incubation, cells were harvested and collected separately. Tubes were centrifuged for 2 min at 900 g and cell pellets were resuspended and washed twice with 1 mL of PBS. The cells in each sample were resuspended in 85 μL of Annexin binding buffer. Cells were stained using 10 μL of Annexin V-FITC solution and 5 μL of propidium iodide (PI) working solution followed by 15 min incubation in the dark at room temperature. Then 400 μL of Annexin V binding buffer were added to each tube and flow cytometry was performed using a FORTESA flow cytometer (FACS). Cells were considered to be apoptotic if they were Annexin V+/PI− (early apoptotic) or Annexin V+/PI+ (late apoptotic). Live cells were defined as Annexin V−/PI−, and Annexin V−/PI+ as necrotic.
Cell proliferation assay—XTT assay was carried on T24 and HTB-9 cells. 1×10^4 cells/well were seeded in 96-well plates. […] MMC was used as a positive control. […] Absorbance was recorded by a Synergy 111 hybrid reader photometer (BioTek) at 490 nm with 650 nm of reference wavelength. […] The cell cycle was determined at 24 hours and apoptosis was determined at 48 hours following treatment. […] Then 200 μL of PBS was added to each tube and the cells were analyzed using FACS.

E-cadherin = test: qRT-PCR of E-cadherin mRNA in T24 cells; type: cell-based, human; settings: 2 hours treatment, extracts 30, MMC 8 μg/mL
Text: […] The RNA was reverse transcribed. The expression of each target gene was normalized to the expression of hypoxanthine phosphoribosyltransferase 1 (HPRT1; geneID 3251) mRNA as the 2^−66 ΔCt method that presents the differences ( ) in the threshold cycle (Ct) between the target gene and the HPRT1 gene. ΔCt=Ct target gene—Ct HPRT1. Experiments were repeated 4 times (4 biological repeats), with two more technical repeats. The primers were as follows:

N-cadherin = test: qRT-PCR of N-cadherin mRNA in T24 cells; type: cell-based, human; settings: 2 hours treatment, 2 hours after washout
Text: […] Cells were then harvested and total RNA was isolated. The RNA was reverse transcribed. The expression of each target gene was normalized to the expression of hypoxanthine phosphoribosyltransferase 1 (HPRT1; geneID 3251) mRNA as the 2^−66 ΔCt method that presents the differences ( ) in the threshold cycle (Ct) between the target gene and the HPRT1 gene. ΔCt=Ct target gene—Ct HPRT1. Experiments were repeated 4 times (4 biological repeats), with two more technical repeats. The primers were as follows:

T24 cells [3] = test: Transwell cell invasion assay; settings: MMC 4 μg/mL, positive control
Text: A transwell assay, as described in [35], was used to determine cell invasion (n=3),

In the case of `CO[C@@]12[C@H](COC(N)=O)C3=C(C(=O)C(C)=C(N)C3=O)N1C[C@@H]1N[C@@H]12` [MMC, Mitomycin-C], the G2/M-phase cells (T24 cells [1]) is reported as 28.1%, the S-phase cells (T24 cells [1]; vehicle control 19.6%) is reported as 34.4% and the cell apoptosis (T24 cells [2]; CBC+THC 17.2+2.8, CBD 15, MMC 8 μg/mL, control 46.2%) is reported as 79.6%. The cell necrosis (T24 cells [2]; DQ 30, sCBD 30, MMC 8 μg/mL, control 1.69%) was 25.13%, the E-cadherin expression (E-cadherin; 2 hours after washout) was “reduced” and the E-cadherin expression (E-cadherin; 6 hours after washout) was “significantly induced”. The N-cadherin expression (N-cadherin) was “slightly reduced” and the “reduction of cell invasion in comparison to control” value (T24 cells [3]) was 43.7±4.8%.
